Source: patent publication US9907800B2, “Kinase inhibitors and method of treating cancer” (University Health Network, priority 2010, dated 2018)
Where a name gives a salt, the structure may show the parent alone.

Experiments:
Assay type in all cases: biochemical
human PLK4 = human PLK4 (Homo sapiens (Human), UniProt O00444); assay: PLK4 inhibition assay (indirect ELISA); conditions: read-out: PLK4 IC50 Ranges
Method: PLK4 activity was measured using an indirect ELISA detection system. […] The colourimetric reaction was allowed to continue for 5 minutes, followed by addition of stop solution (0.5 N sulphuric acid), and quantified by detection at 450 nm with either a monochromatic or filter based plate reader (Molecular Devices M5 or Beckman DTX880, respectively).
Compounds were pre-incubated in the presence of enzyme for 15 minutes prior to addition of ATP and the activity remaining quantified using the above described activity assay. […] The IC50 value was determined using a non-linear 4 point logistic curve fit (XLfit4, IDBS) with the formula; (A+(B/(1+((x/C)^D)))), where A=background value, B=range, C=inflection point, D=curve fit parameter.

FLT3 = FLT3 (Homo sapiens (Human), UniProt P36888); assay: FLT3 inhibition assay (Z-Lyte); conditions: read-out: Flt3 IC50 Ranges
Sequence of FLT3 (P36888 27-993): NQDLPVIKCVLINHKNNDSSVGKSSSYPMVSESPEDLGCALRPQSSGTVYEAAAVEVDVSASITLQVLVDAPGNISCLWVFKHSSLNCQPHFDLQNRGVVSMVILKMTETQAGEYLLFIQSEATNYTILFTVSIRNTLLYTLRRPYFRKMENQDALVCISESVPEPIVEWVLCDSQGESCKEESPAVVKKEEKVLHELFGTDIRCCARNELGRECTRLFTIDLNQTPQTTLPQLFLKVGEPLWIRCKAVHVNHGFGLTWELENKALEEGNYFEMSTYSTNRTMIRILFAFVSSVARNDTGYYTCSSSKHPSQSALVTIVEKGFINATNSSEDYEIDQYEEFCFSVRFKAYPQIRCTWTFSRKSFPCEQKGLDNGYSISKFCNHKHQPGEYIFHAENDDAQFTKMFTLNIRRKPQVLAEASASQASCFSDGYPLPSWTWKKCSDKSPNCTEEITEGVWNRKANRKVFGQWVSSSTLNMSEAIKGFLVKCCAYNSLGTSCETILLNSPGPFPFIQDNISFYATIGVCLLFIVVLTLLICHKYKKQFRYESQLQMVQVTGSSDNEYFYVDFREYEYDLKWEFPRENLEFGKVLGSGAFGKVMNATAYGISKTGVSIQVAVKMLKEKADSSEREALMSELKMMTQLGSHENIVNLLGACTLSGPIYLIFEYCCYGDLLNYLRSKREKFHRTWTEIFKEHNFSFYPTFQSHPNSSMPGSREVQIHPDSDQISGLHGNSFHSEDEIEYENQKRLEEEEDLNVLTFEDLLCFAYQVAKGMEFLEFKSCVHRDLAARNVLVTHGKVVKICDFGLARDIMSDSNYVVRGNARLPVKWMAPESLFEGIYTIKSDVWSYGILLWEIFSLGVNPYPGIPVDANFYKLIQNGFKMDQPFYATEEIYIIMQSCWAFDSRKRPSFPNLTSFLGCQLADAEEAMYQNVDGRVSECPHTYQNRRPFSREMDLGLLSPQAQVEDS
Method: The enzymatic activity of FLT3 was determined using the Z-Lyte assay kit from Invitrogen (Invitrogen cat #PV3191). […] The % inhibition values were determined according to the manufacturer's directions and IC50 values were obtained using a non-linear 4 point logistic curve fit (XLfit4, IDBS).

Aurora B = Aurora B (Homo sapiens (Human), UniProt Q96GD4); assay: Aurora B inhibition assay (Z-Lyte); conditions: read-out: Aurora B IC50 Ranges
Sequence of Aurora B (Q96GD4 whole entry): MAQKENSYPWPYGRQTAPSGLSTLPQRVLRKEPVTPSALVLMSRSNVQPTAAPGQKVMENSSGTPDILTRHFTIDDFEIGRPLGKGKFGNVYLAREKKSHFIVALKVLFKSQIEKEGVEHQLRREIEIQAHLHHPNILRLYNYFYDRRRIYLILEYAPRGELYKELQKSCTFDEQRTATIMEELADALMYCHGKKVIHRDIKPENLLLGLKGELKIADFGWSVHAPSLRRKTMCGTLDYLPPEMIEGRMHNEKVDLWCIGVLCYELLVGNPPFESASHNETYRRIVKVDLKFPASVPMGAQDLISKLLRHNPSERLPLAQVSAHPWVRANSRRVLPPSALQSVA
Method: Aurora B inhibition was determined using the Z-Lyte assay kit from Invitrogen. […] The % inhibition values were determined according to the manufacturer's directions and IC50 values were obtained using a non-linear 4 point logistic curve fit (XLfit4, IDBS)

Sequence of human PLK4 (O00444 1-391): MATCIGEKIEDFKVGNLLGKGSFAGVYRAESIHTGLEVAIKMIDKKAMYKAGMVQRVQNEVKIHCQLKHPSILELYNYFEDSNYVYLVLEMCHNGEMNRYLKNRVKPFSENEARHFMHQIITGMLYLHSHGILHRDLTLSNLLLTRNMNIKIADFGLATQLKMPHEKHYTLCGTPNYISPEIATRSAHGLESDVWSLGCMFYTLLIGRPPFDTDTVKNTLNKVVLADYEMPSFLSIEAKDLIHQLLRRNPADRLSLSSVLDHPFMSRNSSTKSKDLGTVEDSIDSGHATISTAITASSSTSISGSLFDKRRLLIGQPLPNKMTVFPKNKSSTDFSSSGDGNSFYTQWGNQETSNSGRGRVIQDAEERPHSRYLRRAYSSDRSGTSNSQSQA

SMILES: COc1ccc2c(c1)[C@]1(C[C@H]1c1ccc3c(-c4cccc(C(=O)N5CCN(C)CC5)c4)n[nH]c3c1)C(=O)N2 (relative stereo) [Example A149, (1R*,2S*)-5′-methoxy-2-(3-(3-(4-methylpiperazine-1-carbonyl)phenyl)-1H-indazol-6-yl)spiro[cyclopropane-1,3′-indolin]-2′-one 2,2,2-trifluoroacetate]
- IC50 (human PLK4): < 100 nM
- IC50 (FLT3): > 1000 nM
- IC50 (Aurora B): > 1000 nM

SMILES: COc1ccc2c(c1)[C@@]1(C[C@@H]1c1ccc3c(-c4ccc(N5CCN(C)CC5)nc4)n[nH]c3c1)C(=O)N2 (stereo in doubt) [Example A16, (1S,2R)-5′-methoxy-2-(3-(6-(4-methylpiperazin-1-yl)pyridin-3-yl)-1H-indazol-6-yl)spiro[cyclopropane-1,3′-indolin]-2′-one]
- IC50 (human PLK4): < 100 nM
- IC50 (FLT3): < 100 nM
- IC50 (Aurora B): < 100 nM

SMILES: COc1ccc2c(c1)[C@]1(C[C@H]1c1ccc3c(-c4ccc5c(c4)CNCC5)n[nH]c3c1)C(=O)N2 [Example A71, (1R,2S)-5′-methoxy-2-(3-(1,2,3,4-tetrahydroisoquinolin-7-yl)-1H-indazol-6-yl)spiro[cyclopropane-1,3′-indolin]-2′-one 2,2,2-trifluoroacetate salt]
- IC50 (human PLK4): < 100 nM
- IC50 (FLT3): 100 to 1000 nM
- IC50 (Aurora B): < 100 nM

SMILES: CCN1CCN(c2ccc(-c3n[nH]c4cc([C@@H]5C[C@@]56C(=O)Nc5ccc(OC)cc56)ccc34)cc2)CC1 [Example A99, (1R,2S)-2-(3-(4-(4-ethylpiperazin-1-yl)phenyl)-1H-indazol-6-yl)-5′-methoxyspiro[cyclopropane-1,3′-indolin]-2′-one 2,2,2-trifluoroacetate]
- IC50 (human PLK4): < 100 nM
- IC50 (FLT3): < 100 nM
- IC50 (Aurora B): < 100 nM

SMILES: COc1ccc2c(c1)[C@]1(C[C@H]1c1ccc3c(/C=C/c4ccc(CN5CC[C@@H](F)C5)cc4)n[nH]c3c1)C(=O)N2 [Example A112, (1R,2S)-(E)-2-(3-(4-(((R)-3-fluoropyrrolidin-1-yl)methyl)styryl)-1H-indazol-6-yl)-5′-methoxyspiro[cyclopropane-1,3′-indolin]-2′-one 2,2,2-trifluoroacetate]
- IC50 (human PLK4): < 100 nM
- IC50 (FLT3): 100 to 1000 nM
- IC50 (Aurora B): < 100 nM

SMILES: COc1ccc2c(c1)[C@]1(C[C@H]1c1ccc3c(-c4ccc(N5C[C@@H](C)N[C@@H](C)C5)cc4)n[nH]c3c1)C(=O)N2 [Example A126, (1R,2S)-2-(3-(4-(cis-3,5-dimethylpiperazin-1-yl)phenyl)-1H-indazol-6-yl)-5′-methoxyspiro[cyclopropane-1,3′-indolin]-2′-one 2,2,2-trifluoroacetate]
- IC50 (human PLK4): < 100 nM
- IC50 (FLT3): 100 to 1000 nM
- IC50 (Aurora B): < 100 nM

SMILES: COc1ccc2c(c1)[C@]1(C[C@H]1c1ccc3c(-c4ccc(N(C)CCN(C)C)cc4)n[nH]c3c1)C(=O)N2 [Example A129, (1R,2S)-2-(3-(4-((2-(dimethylamino)ethyl)(methyl)amino)phenyl)-1H-indazol-6-yl)-5′-methoxyspiro[cyclopropane-1,3′-indolin]-2′-one 2,2,2-trifluoroacetate]
- IC50 (human PLK4): < 100 nM
- IC50 (FLT3): 100 to 1000 nM
- IC50 (Aurora B): < 100 nM

SMILES: COCCN1C(=O)[C@@]2(C[C@H]2c2ccc3c(/C=C/c4ccc(CN(C)C)cc4)n[nH]c3c2)c2ccccc21 [Example A131, (1R,2S)-(E)-2-(3-(4-((dimethylamino)methyl)styryl)-1H-indazol-6-yl)-1′-(2-methoxyethyl)spiro[cyclopropane-1,3′-indolin]-2′-one 2,2,2-trifluoroacetate]
- IC50 (human PLK4): < 100 nM
- IC50 (FLT3): > 1000 nM
- IC50 (Aurora B): < 100 nM

SMILES: COc1ccc2c(c1)[C@]1(C[C@H]1c1ccc3c(/C=C/c4ccc(N5CCN(C)CC5)cc4)n[nH]c3c1)C(=O)N2 [Example A175, (1R,2S)-(E)-5′-methoxy-2-(3-(4-(4-methylpiperazin-1-yl)styryl)-1H-indazol-6-yl)spiro[cyclopropane-1,3′-indolin]-2′-one 2,2,2-trifluoroacetate]
- IC50 (human PLK4): < 100 nM
- IC50 (FLT3): < 100 nM
- IC50 (Aurora B): < 100 nM

SMILES: COc1ccc2c(c1)[C@]1(C[C@H]1c1ccc3c(-c4ccc(N5CCN(C6CCCC6)CC5)cc4)n[nH]c3c1)C(=O)N2 [Example A192, (1R,2S)-2-(3-(4-(4-cyclopentylpiperazin-1-yl)phenyl)-1H-indazol-6-yl)-5′-methoxyspiro[cyclopropane-1,3′-indolin]-2′-one 2,2,2-trifluoroacetate]
- IC50 (human PLK4): < 100 nM
- IC50 (FLT3): 100 to 1000 nM
- IC50 (Aurora B): < 100 nM
